The values below come from patent publication US20260115190A1, “DISPERSIONS OF ETRUMADENANT” (Arcus Biosciences, Inc., priority 2022, published 2026).

Data set [1] has as its target T1, breast cancer resistance protein (BCRP) (Homo sapiens, UniProt Q9UNQ0).
T1 sequence (Q9UNQ0 1-655): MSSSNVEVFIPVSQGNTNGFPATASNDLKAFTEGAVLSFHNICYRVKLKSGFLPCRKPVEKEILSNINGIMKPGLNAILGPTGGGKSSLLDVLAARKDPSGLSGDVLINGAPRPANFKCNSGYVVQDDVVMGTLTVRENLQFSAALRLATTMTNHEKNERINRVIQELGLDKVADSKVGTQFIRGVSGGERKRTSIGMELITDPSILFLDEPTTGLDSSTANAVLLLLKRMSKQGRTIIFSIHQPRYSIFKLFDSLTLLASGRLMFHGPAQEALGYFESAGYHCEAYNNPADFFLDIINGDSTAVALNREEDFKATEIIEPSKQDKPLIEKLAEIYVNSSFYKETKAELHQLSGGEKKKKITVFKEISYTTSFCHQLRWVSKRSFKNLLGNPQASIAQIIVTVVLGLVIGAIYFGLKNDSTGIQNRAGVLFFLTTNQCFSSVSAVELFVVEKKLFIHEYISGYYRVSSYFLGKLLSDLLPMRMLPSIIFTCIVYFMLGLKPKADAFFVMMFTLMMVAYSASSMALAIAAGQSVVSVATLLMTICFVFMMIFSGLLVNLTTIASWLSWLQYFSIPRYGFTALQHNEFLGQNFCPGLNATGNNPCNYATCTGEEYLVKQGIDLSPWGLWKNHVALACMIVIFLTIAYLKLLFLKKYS
As to the kind of experiment: In vitro transporter substrate data (BCRP). The class given is in vitro ADME.

Data set [2] can be described thus: Non-sink dissolution (0.1N HCl to FaSSIF gastric transfer). It counts as physicochemical. Here is the method:
In vitro drug dissolution performance for each dispersion was evaluated under non-sink conditions in a two-stage process that simulates pH and bile salt concentrations for both gastric and intestinal exposure. In vitro dissolution testing under non-sink conditions allows for a direct evaluation of each dispersion's ability to generate and maintain supersaturation above crystalline etrumadenant's solubility; was used as a predictive surrogate for ensuring product quality and in vivo performance; and is an effective test to discriminate between formulations at a given stability condition.
To begin dissolution (t=0), a sample of SDI powder was briefly suspended in 4 mL of FaSSIF (2 mg/mL SIF in 100 mM PBS) and then transferred into 50 mL SGF (0.1 N HCl (aq)) pre-heated to 37° C. in a USP Type 2 mini-vessel (100 mL total vessel volume) with stirring (paddles) at 100 rpm. At 30 minutes, a gastric transfer step was performed wherein the volume in each dissolution vessel was approximately doubled using 2×FaSSIF (4.48 mg/mL SIF powder (BioRelevant)), resulting in a final pH of 6.8 in a total volume of 100 mL. Samples taken before and after this transfer at indicated times were evaluated for drug concentration by HPLC. The drug concentrations measured in this test are a composite of SDI free drug, drug in micelles, and drug suspended in solution. A summary of the dissolution and HPLC parameters are shown in Table 6 and Table 7, respectively.

Data set [3] deals with CYP3A4, CYP2C8, and uridine 5′-diphospho glucuronosyltransferase (UGT) enzyme isoforms. As to the kind of experiment: In vitro metabolism of etrumadenant. To be noted: in vitro data. The class given is in vitro ADME.
Data set [4] is described as follows: Thermal analysis by MDSC (Tg). The class given is physicochemical. To be noted: amorphous etrumadenant made by melt quenching; one experiment. The procedure:
Thermal Properties. Thermal properties were measured using a TA Instruments Discovery DSC2500 DSC equipped with a TA instruments Refrigerated Cooling System 90 operating in modulated mode. Briefly, bulk drug substance was analyzed by standard DSC with a heating rate of 10° C. per minute ramping up to 220° C. Amorphous etrumadenant was created from the starting drug substance by rapidly melt quenching using liquid N2 and then analyzed by modulated DSC (MDSC). Events monitored include the glass transition temperature (Tg), cold crystallization (Tc), defined as a crystallization event at a temperature lower than the melt temperature, and melting temperature (Tm). In one experiment, the thermal properties were as follows: Tg=69° C.; Tc=no crystallization up to 220° C.; Tm=192° C. Minor lot-to-lot variation may occur.

Data set [5] can be described thus: IV reference AUClast in beagle dogs. To be noted: dog, in vivo, IV at 5 mg/kg.
Data set [6] addresses T2, A2BR (Homo sapiens, UniProt P29275).
T2 sequence (P29275 1-332): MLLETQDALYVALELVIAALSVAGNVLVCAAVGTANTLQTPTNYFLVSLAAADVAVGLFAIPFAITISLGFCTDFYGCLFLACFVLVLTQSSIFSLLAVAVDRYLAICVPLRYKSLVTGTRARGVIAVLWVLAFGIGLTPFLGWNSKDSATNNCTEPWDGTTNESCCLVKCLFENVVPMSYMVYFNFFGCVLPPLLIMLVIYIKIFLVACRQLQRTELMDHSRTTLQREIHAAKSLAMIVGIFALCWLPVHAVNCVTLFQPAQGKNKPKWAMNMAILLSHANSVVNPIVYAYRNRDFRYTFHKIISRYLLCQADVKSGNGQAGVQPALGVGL
The following applies: antagonist; has been reported; cited from earlier work.

The target in data set [7] is A2AR (Homo sapiens, UniProt P29274). The following applies: antagonist; has been reported; cited from earlier work.
Chain of A2AR (P29274 whole entry): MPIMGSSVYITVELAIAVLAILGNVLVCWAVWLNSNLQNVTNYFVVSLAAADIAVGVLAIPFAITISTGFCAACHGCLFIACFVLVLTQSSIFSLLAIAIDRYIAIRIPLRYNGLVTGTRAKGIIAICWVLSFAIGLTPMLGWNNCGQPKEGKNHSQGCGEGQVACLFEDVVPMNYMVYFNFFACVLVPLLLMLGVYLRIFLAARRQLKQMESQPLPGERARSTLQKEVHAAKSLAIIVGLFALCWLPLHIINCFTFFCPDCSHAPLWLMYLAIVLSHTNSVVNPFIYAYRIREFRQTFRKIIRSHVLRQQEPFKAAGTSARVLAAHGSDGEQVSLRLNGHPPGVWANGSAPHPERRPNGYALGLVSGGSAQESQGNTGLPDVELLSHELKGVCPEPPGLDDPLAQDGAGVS

As for `Cc1c(C#N)cccc1-c1cc(-c2cn(Cc3cccc(C(C)(C)O)n3)nn2)nc(N)n1` [Etrumadenant, 3-[2-amino-6-(1-{[6-(2-hydroxypropan-2-yl)pyridine-2-yl]methyl}-1H-1,2,3-triazol-4-yl)pyrimidin-4-yl]-2-methylbenzonitrile], the “substrate of breast cancer resistance protein (BCRP)” value in data set [1] is reported as “substrate”. The “AUC35-210 FaSSIF” value in data set [2] (Example 4, after transfer to FaSSIF from 35 to 210 minutes) was found to be 8000 min*μgA/mL; in data set [2] (Example 5, t = 0), 3800 min*μgA/mL. The C210 is 37.9 μgA/mL in data set [2] (Example 4, drug concentration at 210 minutes (180 minutes after transfer to FaSSIF)); 15.5 μgA/mL in data set [2] (Example 5, t = 0); 15.6 μgA/mL in data set [2] (Example 5, t = 0, listed as AB928 starting drug substance). Moreover, the “Cmax FaSSIF” value in data set [2] (Example 4, maximum drug concentration after transfer to FaSSIF) worked out at 155.0 μgA/mL. The “Total Drug CmaxFaSSIF” value in data set [2] (Example 5, t = 0) was found to be 129.9 μgA/mL. For the same molecule, the “etrumadenant metabolism mediated by” value in data set [3] is “mediated by CYP3A4, CYP2C8, and uridine 5′-diphospho glucuronosyltransferase (UGT) enzyme isoforms”. For the same molecule, in data set [4], the “glass transition temperature (Tg)” value amounted to 69 °C. Further, in data set [5], the AUC(0-t) came to 25100 ng·h/mL. Besides, the “potency on A2BR” value in data set [6] was “less than 10 nM”. Also, the “potency on A2AR” value in data set [7] is given as “less than 10 nM”.
